In series [1] the test system is dermabraded skin (cutaneous reactions, redness/bleeding).
Excerpt: In Vivo Dermabrasion Assays in Minipig Minizone Model Using a BURANE XL Laser and Skin Interaction with Brimonidine Gel
The objectives of this study were to assess the local dermal effect of single dermal application of Brimonidine Gel placebo or 1% applied on delimited abraded mini-zone (2.8 cm^2 and different dermabraded skin conditions) in the Gottingen® minipig.
One female Göttingen® minipig (naïve), between 4 and 8 months old, received Dermal (topical) application of Brimonidine Gel at 1% on delimited mini-zones (2.8 cm^2, using a Ringflost®).
each zone is clipped free from hair. On the clipped area (dorsum, avoiding the spinal column and the intra-scapular area), 4 minizones (2 on either side) is delimited using Ringflost® and surrounded with an indelible pen.
The animal is anesthetized (Zoletil®) before dermabrasion. Each minizone is disinfected with chlorexidine. The experimental conditions used for each zone is set as follows:
The Brimonidine gel 1% is gently applied 5 minutes prior to the dermabrasion procedure.
The cutaneous reaction is evaluated immediately, and 2-5 and 10 minutes after the dermabrasion procedure. The skin is examined to evaluate the degree of erythema, edema, desquamation, scab formation and any other lesions. Cutaneous reaction is evaluated according to the grading scale describe in “OCDE Guideline No. 404. Acute dermal irritation/corrosion”. […]
The conditions of series [2]: in vivo; cited from earlier work.
In a further series the target is α2A-adrenoceptor (Sus scrofa, UniProt P18871). The settings on record: porcine species; Wikberg-Matsson and Simonsen 2001; cited from earlier work.
α2A-adrenoceptor, sequence (P18871 whole entry): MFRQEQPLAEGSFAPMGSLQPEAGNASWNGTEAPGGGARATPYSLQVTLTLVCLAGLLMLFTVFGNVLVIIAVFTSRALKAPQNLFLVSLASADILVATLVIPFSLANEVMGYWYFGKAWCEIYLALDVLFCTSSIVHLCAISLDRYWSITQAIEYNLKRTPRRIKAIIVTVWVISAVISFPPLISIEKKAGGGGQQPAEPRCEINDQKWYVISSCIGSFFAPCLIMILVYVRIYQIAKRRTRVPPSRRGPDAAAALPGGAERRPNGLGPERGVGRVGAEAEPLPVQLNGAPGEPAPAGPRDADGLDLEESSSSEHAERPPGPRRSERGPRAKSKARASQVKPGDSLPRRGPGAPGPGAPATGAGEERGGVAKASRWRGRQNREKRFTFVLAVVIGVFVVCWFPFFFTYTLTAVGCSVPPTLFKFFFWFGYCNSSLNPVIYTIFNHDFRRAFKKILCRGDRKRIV

Regarding `Brc1c(NC2=NCCN2)ccc2nccnc12` [Brimonidine, (5-Bromo-quinoxalin-6-yl)-(4,5-dihydro-1H-imidazol-2-yl)-amine], the “cutaneous reactions (bruising or bleeding) during aesthetic or surgery procedures” value in series [1] (Brimonidine gel 1% topical on dermabraded minizones, conclusion of Example 3) is listed as “capable of decreasing cutaneous reactions”. In addition, the “vasoconstrictor effect (comparative analysis of pictures Z3 vs Z4)” value in series [1] (Brimonidine gel 1% topical, applied 5 minutes prior to dermabrasion, 10 j/cm2, 6 passes, treated zone Z4 vs non-treated Z3, one female minipig) is “visually more evident starting from 5 min post-dermabrasion until 14 min and beyond”. In series [2], the half-life was 4 h. In addition, the vasoconstrictor activity entry at α2A-adrenoceptor is “potent vasoconstrictor”.

The record behind these values is patent US20120295914A1, “COMBINATION OF ADRENERGIC RECEPTOR AGONIST ALPHA-1 OR ALPHA-2, PREFERABLY BRIMONIDINE WITH FILLERS, PREFERABLY HYALURONIC ACID” (Galderma Research & Development, priority 2009, published 2012).
